Experimental findings from US20220354752A1, “NANOFIBRE MATRIX MADE OF NATURAL POLYMERS WITH NATURAL FUNCTIONAL INGREDIENTS FOR COSMETIC PRODUCTS” (NANOLAYR LIMITED, priority 2019, published 2022) are described below.

SMILES strings stand for the structures.

Experiment [1] relates to human epidermal melanocytes. The experiment can be described thus: Brightening in vitro study: melanin production of melanocytes. It is filed as cell-based. Particulars: kojic acid 42 μg/ml in cell culture, 96 hours incubation. On the procedure: In vitro study is used to evaluate the brightening effect and is determined by analysing the melanin production of melanocytes. The level of melanin produced by melanocytes determines the colour of skin, therefore, the brightening effect can be evaluated by the impact of formulation on the melanin production of melanocytes. In this study, human epidermal melanocytes are utilised. Kojic acid, traditionally used as a brightening ingredient, is used as the positive control. Kojic add is prepared in 15% ethanol/Hanks balanced salt solution and added into cell culture to give final concentration of 42 μg/ml in cell culture. 0.8 cm circles of nanofibre is directly applied into the cell culture to give a final concentration of ethyl ascorbic add of 3 μg/ml in cell culture. FIG. 5 presents the result of melanin concentration in cells only, cells treated with kojic acid and cells treated with nanofibres after 96 hours incubation time.
The absorbance of each sample is read at 405 nm and then compared with a standard curve of synthetic melanin to estimate the concentration of melanin in the cell culture. […] The melanin concentration is 101.5 μg/ml in cells only, 101.1 μg/ml in cells with kojic add and 97.48 μg/ml in cells with nanofibres. […] This is probably due to the added kojic add concentration being very low. […]

Another experiment relates to TNF-alpha. The experiment can be described thus: Anti-inflammatory in vitro study: TNF-alpha in reconstructed epidermis treated with SDS. Type of experiment: cell-based. To be noted: human reconstructed epidermis, 0.1% SDS, 24 hours incubation. On the procedure:
A human reconstructed epidermis is put in contact with the vegan nanofibres (topical application to mimic the real condition of use) and treated with an irritant inflammatory agent such as sodium dodecyl sulfate (SDS) to assess the capability of vegan nanofibers to counteract the inflammatory event. The evaluation is performed by using a non-treated epidermis as negative control and the epidermis treated only with the inflammatory agent (SDS) as a positive control. TNF-alpha is often associated with the inflammatory process and oxidative stress as an acute pro-inflammatory marker.

On to `O=c1cc(CO)occ1O` [kojic acid], for which, in experiment [1], the “inhibition to melanin production” value is reported as “slight inhibition to melanin production, but is not statistically significant” and the melanin concentration worked out at 101.1 µg/mL. With `CCCCCCCCCCCCOS(=O)(=O)[O-].[Na+]` [SDS, sodium dodecyl sulfate], in the experiment on TNF-alpha, the “concentration of TNF-alpha” value stood at 47.92 µg/mL.
